Assay: Absorption maximum of asymmetric sensitizers
Format: physicochemical
Description: The asymmetric sensitizers AS-02, AS-03, AS-04 and AS-05 were obtained using a similar preparation method. The asymmetric sensitizers AS-01 to AS-05 are given in Table 2 together with their absorption maximum (Abs.Max (nm)) and their melting point (° C.).

| Structure (SMILES) | Abs. Max |
| --- | --- |
| CCC(C)Oc1c(OC)cc(/C=C/c2ccc(/C=C/c3cc(OC)c(OCCO)c(OC)c3)cc2)cc1OC (centres unmarked) [AS-05] | 371 nm |
| CCC(C)Oc1c(OC)cc(/C=C/c2ccc(/C=C/c3cc(OC)c(OC4CCCC4)c(OC)c3)cc2)cc1OC (centres unmarked) [AS-04] | 371 nm |
| CCC(C)Oc1c(OC)cc(/C=C/c2ccc(/C=C/c3cc(OC)c(OC(CC)CC)c(OC)c3)cc2)cc1OC (centres unmarked) [AS-02] | 370 nm |
| CCCCC(CC)COc1c(OC)cc(/C=C/c2ccc(/C=C/c3cc(OC)c(OC(C)CC)c(OC)c3)cc2)cc1OC (centres unmarked) [AS-01] | 371 nm |
| CCC(C)Oc1c(OC)cc(/C=C/c2ccc(/C=C/c3cc(OC)c(OC4CCCCC4)c(OC)c3)cc2)cc1OC (centres unmarked) [AS-03] | 371 nm |
